# Measured values taken from the supplement of paper PMC10307832.
# Experiments:
# Experiment in all cases: relative viability (nuclei count vs DMSO), 5 days (fraction); higher = more cells survive
# COR-L23 = system: COR-L23
# How it was run: (§1)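 Lung cancer cell lines were pin-tool dosed in 1536-well plates on the day after seeding, with either a lone drug or a fixed anchor-drug dose plus five library-drug doses (not always all listed) in √10 steps. Nuclei were counted on 4× images after 5 days. Relative viability is the ratio of treated-well to vehicle-well nuclei counts, with each value a median of duplicate plates.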
# 201T = system: 201T
# How it was run: as §1
# NCI-H23 = system: NCI-H23
# How it was run: as §1
# HARA = system: HARA
# How it was run: as §1
# NCI-H1792 = system: NCI-H1792
# How it was run: as §1
# HCC-15 = system: HCC-15
# How it was run: as §1
# NCI-H596 = system: NCI-H596
# How it was run: as §1
# NCI-H650 = system: NCI-H650
# How it was run: as §1
# HCC-44 = system: HCC-44
# How it was run: as §1
# SK-MES-1 = system: SK-MES-1
# How it was run: as §1
# A-427 = system: A-427
# How it was run: as §1
# EKVX = system: EKVX
# How it was run: as §1
# NCI-H1437 = system: NCI-H1437
# How it was run: as §1
# NCI-H441 = system: NCI-H441
# How it was run: as §1
# NCI-H838 = system: NCI-H838
# How it was run: as §1
# NCI-H1975 = system: NCI-H1975
# How it was run: as §1
# NCI-H358 = system: NCI-H358
# How it was run: as §1
# BEN = system: BEN
# How it was run: as §1
# HCC-827 = system: HCC-827
# How it was run: as §1
smiles,measurement,setting,value
CC(=O)O[C@@]12CO[C@@H]1C[C@H](O)[C@@]1(C)C(=O)[C@H](O)C3=C(C)[C@@H](OC(=O)[C@H](O)[C@@H](NC(=O)OC(C)(C)C)c4ccccc4)C[C@@](O)([C@@H](OC(=O)c4ccccc4)[C@H]21)C3(C)C [Docetaxel] + Cc1nc(NC(=O)N2CCC[C@H]2C(N)=O)sc1-c1ccnc(C(C)(C)C(F)(F)F)c1 [Alpelisib] (partner 2 µM),relative viability,COR-L23; first compound 0.0002 µM,0.65
same,relative viability,COR-L23; first compound 0.000632 µM,0.718
same,relative viability,COR-L23; first compound 0.002 µM,0.261
same,relative viability,COR-L23; first compound 0.006325 µM,0.0995
same,relative viability,COR-L23; first compound 0.02 µM,0.0707
same,relative viability,201T; first compound 0.0002 µM,1.01
same,relative viability,201T; first compound 0.000632 µM,1.06
same,relative viability,201T; first compound 0.002 µM,0.878
same,relative viability,201T; first compound 0.006325 µM,0.555
same,relative viability,201T; first compound 0.02 µM,0.366
same,relative viability,NCI-H23; first compound 0.0002 µM,0.612
same,relative viability,NCI-H23; first compound 0.000632 µM,0.512
same,relative viability,NCI-H23; first compound 0.002 µM,0.406
same,relative viability,NCI-H23; first compound 0.006325 µM,0.209
same,relative viability,NCI-H23; first compound 0.02 µM,0.0958
same,relative viability,HARA; first compound 0.0002 µM,0.778
same,relative viability,HARA; first compound 0.000632 µM,0.525
same,relative viability,HARA; first compound 0.002 µM,0.282
same,relative viability,HARA; first compound 0.006325 µM,0.114
same,relative viability,HARA; first compound 0.02 µM,0.0727
same,relative viability,NCI-H1792; first compound 0.0002 µM,0.728
same,relative viability,NCI-H1792; first compound 0.000632 µM,0.655
same,relative viability,NCI-H1792; first compound 0.002 µM,0.401
same,relative viability,NCI-H1792; first compound 0.02 µM,0.0824
same,relative viability,HCC-15; first compound 0.0002 µM,0.805
same,relative viability,HCC-15; first compound 0.000632 µM,0.467
same,relative viability,HCC-15; first compound 0.002 µM,0.196
same,relative viability,HCC-15; first compound 0.006325 µM,0.208
same,relative viability,HCC-15; first compound 0.02 µM,0.118
same,relative viability,NCI-H596; first compound 0.0002 µM,0.616
same,relative viability,NCI-H596; first compound 0.000632 µM,0.516
same,relative viability,NCI-H596; first compound 0.002 µM,0.553
same,relative viability,NCI-H596; first compound 0.006325 µM,0.457
same,relative viability,NCI-H596; first compound 0.02 µM,0.336
same,relative viability,NCI-H650; first compound 0.0002 µM,1.02
same,relative viability,NCI-H650; first compound 0.000632 µM,0.518
same,relative viability,NCI-H650; first compound 0.002 µM,0.315
same,relative viability,NCI-H650; first compound 0.006325 µM,0.304
same,relative viability,NCI-H650; first compound 0.02 µM,0.212
same,relative viability,HCC-44; first compound 0.0002 µM,0.758
same,relative viability,HCC-44; first compound 0.000632 µM,0.711
same,relative viability,HCC-44; first compound 0.002 µM,0.609
same,relative viability,HCC-44; first compound 0.006325 µM,0.149
same,relative viability,HCC-44; first compound 0.02 µM,0.0751
same,relative viability,SK-MES-1; first compound 0.0002 µM,0.932
same,relative viability,SK-MES-1; first compound 0.000632 µM,0.892
same,relative viability,SK-MES-1; first compound 0.002 µM,0.484
same,relative viability,SK-MES-1; first compound 0.006325 µM,0.224
same,relative viability,SK-MES-1; first compound 0.02 µM,0.104
same,relative viability,A-427; first compound 0.0002 µM,1.02
same,relative viability,A-427; first compound 0.000632 µM,1.14
same,relative viability,A-427; first compound 0.002 µM,0.974
same,relative viability,A-427; first compound 0.006325 µM,0.204
same,relative viability,A-427; first compound 0.02 µM,0.164
same,relative viability,EKVX; first compound 0.0002 µM,0.884
same,relative viability,EKVX; first compound 0.000632 µM,0.853
same,relative viability,EKVX; first compound 0.002 µM,0.435
same,relative viability,EKVX; first compound 0.006325 µM,0.25
same,relative viability,EKVX; first compound 0.02 µM,0.146
same,relative viability,NCI-H1437; first compound 0.0002 µM,0.888
same,relative viability,NCI-H1437; first compound 0.000632 µM,0.759
same,relative viability,NCI-H1437; first compound 0.002 µM,0.156
same,relative viability,NCI-H1437; first compound 0.006325 µM,0.124
same,relative viability,NCI-H1437; first compound 0.02 µM,0.0738
same,relative viability,NCI-H441; first compound 0.0002 µM,0.579
same,relative viability,NCI-H441; first compound 0.000632 µM,0.677
same,relative viability,NCI-H441; first compound 0.002 µM,0.323
same,relative viability,NCI-H441; first compound 0.006325 µM,0.205
same,relative viability,NCI-H441; first compound 0.02 µM,0.172
same,relative viability,NCI-H838; first compound 0.0002 µM,0.978
same,relative viability,NCI-H838; first compound 0.000632 µM,0.974
same,relative viability,NCI-H838; first compound 0.002 µM,0.286
same,relative viability,NCI-H838; first compound 0.006325 µM,0.194
same,relative viability,NCI-H838; first compound 0.02 µM,0.157
same,relative viability,NCI-H1975; first compound 0.0002 µM,0.617
same,relative viability,NCI-H1975; first compound 0.000632 µM,0.437
same,relative viability,NCI-H1975; first compound 0.006325 µM,0.156
same,relative viability,NCI-H1975; first compound 0.02 µM,0.122
same,relative viability,NCI-H358; first compound 0.0002 µM,0.786
same,relative viability,NCI-H358; first compound 0.000632 µM,0.361
same,relative viability,NCI-H358; first compound 0.002 µM,0.267
same,relative viability,NCI-H358; first compound 0.02 µM,0.111
same,relative viability,BEN; first compound 0.0002 µM,0.875
same,relative viability,BEN; first compound 0.000632 µM,0.897
same,relative viability,BEN; first compound 0.002 µM,0.505
same,relative viability,BEN; first compound 0.006325 µM,0.261
same,relative viability,BEN; first compound 0.02 µM,0.19
same,relative viability,HCC-827; first compound 0.0002 µM,0.981
same,relative viability,HCC-827; first compound 0.000632 µM,0.992
same,relative viability,HCC-827; first compound 0.002 µM,0.706
same,relative viability,HCC-827; first compound 0.006325 µM,0.288
same,relative viability,HCC-827; first compound 0.02 µM,0.282
